Columns and labels:
Rattus norvegicus [1] = assay: Tested for neuroleptic activity by measuring antagonism of d-amphetamine sulfate at intraperitoneal dosage of 5 mg/kg, after 24 hours in rat; Range is 10-32; type: functional; settings: ip
Rattus norvegicus [2] = assay: Tested for neuroleptic activity by measuring antagonism of d-amphetamine sulfate at intraperitoneal dosage of 5 mg/kg, after 5 hours in rat; Range is 1.0-3.2; type: functional; settings: ip
Rattus norvegicus [3] = assay: Tested for neuroleptic activity by measuring antagonism of d-amphetamine sulfate at intraperitoneal dosage of 5 mg/kg, after 1 hour in rat; Range is 0.32-1.0; type: functional; settings: ip
Canis familiaris [4] = assay: The ability of compound to prevent the emesis induced by apomorphine (0.1 mg/kg, iv) in dogs at the specified dosage of 2.0 mg/kg (1 N saline); Range is 1-2; type: functional, Canis lupus familiaris
Canis familiaris [5] = assay: The ability of compound to prevent the emesis induced by apomorphine (0.1 mg/kg, iv) in dogs at the specified dosage of 3.2 mg/kg (sesame oil); Range is 8-9; type: functional, Canis lupus familiaris
Rattus norvegicus [6] = assay: Tested for neuroleptic activity by measuring antagonism of d-amphetamine sulfate at intraperitoneal dosage of 5 mg/kg, after 5 hours in rat; Range is 0.1-0.32; type: functional; settings: ip
Rattus norvegicus [7] = assay: Tested for neuroleptic activity by measuring antagonism of d-amphetamine sulfate at intraperitoneal dosage of 5 mg/kg, after 1 hour in rat; Range is 0.1-0.32; type: functional; settings: ip
Rattus norvegicus [8] = assay: Tested for neuroleptic activity by measuring antagonism of d-amphetamine sulfate at intraperitoneal dosage of 5 mg/kg, after 24 hours in rat; Range is 0.32-1.0; type: functional; settings: ip
Rattus norvegicus [9] = assay: Tested for neuroleptic activity by measuring antagonism of d-amphetamine sulfate at intraperitoneal dosage of 5 mg/kg, after 24 hours in rat; Range is 1.0-32; type: functional; settings: ip
Rattus norvegicus [10] = assay: Tested for neuroleptic activity by measuring antagonism of d-amphetamine sulfate at intraperitoneal dosage of 5 mg/kg, after 5 hours in rat; type: functional; settings: ip
Rattus norvegicus [11] = species on record: Rattus norvegicus; assay: Inhibition of amphetamine induced stereotypy in rats; pretreated 1 hr before amphetamine.; type: functional
Rattus norvegicus [12] = species on record: Rattus norvegicus; assay: animal or person; settings: ip, 24 h
Description: tested for neuroleptic activity by measuring antagonism of d-amphetamine sulfate at intraperitoneal dosage of 5 mg/kg, after 24 hours in rat

Rattus norvegicus [13] = species on record: Rattus norvegicus; assay: animal or person; settings: ip, 1 h
Description: tested for neuroleptic activity by measuring antagonism of d-amphetamine sulfate at intraperitoneal dosage of 5 mg/kg, after 1 hour in rat

Rattus norvegicus [14] = species on record: Rattus norvegicus; assay: animal or person; settings: ip, 5 h
Description: tested for neuroleptic activity by measuring antagonism of d-amphetamine sulfate at intraperitoneal dosage of 5 mg/kg, after 5 hours in rat

Cl.OC(CCCN1CCc2c(c3cc(F)ccc3n2-c2ccc(F)cc2)C1)c1cccc(F)c1 (centres undefined)
ED50 (Rattus norvegicus [1]): 10 mg/kg
ED50 (Rattus norvegicus [2]): 1 mg/kg
ED50 (Rattus norvegicus [3]): 0.32 mg/kg

CCCCCCC(=O)OC(CCCN1CCc2c(c3cc(F)ccc3n2-c2ccc(F)cc2)C1)c1ccc(F)cc1.Cl (centres undefined)
Protection (Canis familiaris [4]): 1 days

CCCCC(=O)OC(CCCN1CCc2c(c3cc(F)ccc3n2-c2ccc(F)cc2)C1)c1ccc(F)cc1.Cl (centres undefined)
Protection (Canis familiaris [5]): 8 days

OC(CCCN1CCc2c(c3cc(F)ccc3n2-c2ccc(F)cc2)C1)c1ccc(F)cc1 (centres undefined) [FLUTROLINE]
ED50 (Rattus norvegicus [6]): 0.1 mg/kg
ED50 (Rattus norvegicus [7]): 0.1 mg/kg
ED50 (Rattus norvegicus [8]): 0.32 mg/kg

OC(CCCN1CCc2c(c3cc(F)ccc3n2-c2ccc(Cl)cc2)C1)c1ccc(F)cc1 (centres undefined)
ED50 (Rattus norvegicus [9]): 1 mg/kg
ED50 (Rattus norvegicus [10]): > 32 mg/kg
ED50 (Rattus norvegicus [11]): > 32 mg/kg

Cl.O=C(CCN1CCc2c(c3cc(F)ccc3n2-c2ccc(F)cc2)C1)c1ccc(F)cc1
ED50 (Rattus norvegicus [12]): > 32 mg/kg
ED50 (Rattus norvegicus [13]): > 32 mg/kg
ED50 (Rattus norvegicus [14]): > 32 mg/kg

From ChEMBL document CHEMBL1121451, “Neuroleptic activity in 5-aryltetrahydro-gamma-carbolines” (J Med Chem, 1980)
